For 20 compounds, TGI results are on record in PubChem BioAssay (NCI).

Some test systems named below: HCC-2998 colon; SK-OV-3 ovarian; SK-MEL-2 melanoma; RXF 393 renal; NCI-H460 lung; TK-10 renal; 786-0 renal; MDA-MB-435; A498 renal; COLO 205 colon.
Assay in all cases: NCI anticancer screen, dose series, 48 h

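1) Cells in 96-well plates. 2) Compound, 48 h, 5 concentrations. 3) Linear interpolation between surrounding doses. 4) Unreached endpoint = highest concentration. TGI denotes the concentration required for complete inhibition of growth.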

Regarding `CC1=C2C(=C[C@H]3[C@]4(C)CCCC(C)(C)[C@H]4CC[C@]34O[C@H]24)OC1=O`, the TGI in the assay with HCC-2998 colon, in the assay on SK-OV-3 ovarian, with SK-MEL-2 melanoma, with RXF 393 renal, with NCI-H460 lung and in the assay on TK-10 renal was greater than 100 µM in each case. Besides, the TGI in the assay with 786-0 renal, with MDA-MB-435, with A498 renal and in the assay with COLO 205 colon was greater than 100 µM in each case.

Turning to `COC(=O)CN1c2nc(C#N)c(C#N)nc2N(CC(=O)OC)c2nc(C#N)c(C#N)nc21`, the TGI was greater than 49.7 µM in the assay with HCC-2998 colon; 35.2 µM in the assay with SK-OV-3 ovarian; greater than 100 µM in the assay with SK-MEL-2 melanoma; 7.09 µM in the assay on RXF 393 renal; greater than 71 µM with NCI-H460 lung; 6.78 µM in the assay with TK-10 renal. For the same compound, the TGI in the assay with 786-0 renal is 5.21 µM; in the assay with MDA-MB-435 it was greater than 100 µM; with A498 renal, greater than 52 µM; in the assay with COLO 205 colon it was 15.3 µM.

`CCCCn1cnc2c(c(CC#N)nn2-c2ccccc2)c1=N`: the TGI in the assay with HCC-2998 colon was greater than 100 µM; in the assay on SK-OV-3 ovarian, greater than 100 µM; in the assay with SK-MEL-2 melanoma, 62.1 µM; in the assay with RXF 393 renal, greater than 100 µM; in the assay on NCI-H460 lung, greater than 100 µM; in the assay with TK-10 renal it was greater than 100 µM. Further, the TGI in the assay with 786-0 renal is greater than 100 µM; with MDA-MB-435, greater than 100 µM; in the assay on A498 renal, 91.6 µM; in the assay on COLO 205 colon, 92.8 µM.

On to `C[C@@H](Cl)[C@H]1CCCN(Cc2ccc(Br)cc2)C1`, for which the TGI in the assay with HCC-2998 colon, in the assay on SK-OV-3 ovarian, with SK-MEL-2 melanoma, with RXF 393 renal, in the assay on NCI-H460 lung and in the assay on TK-10 renal was greater than 12.5 µM in each case. The TGI in the assay with 786-0 renal, with MDA-MB-435, in the assay on A498 renal and in the assay with COLO 205 colon was greater than 12.5 µM each time.

Regarding `c1csc(-c2ccc(-c3cccs3)c3nsnc23)c1`, the TGI in the assay on HCC-2998 colon is greater than 100 µM; with SK-OV-3 ovarian, greater than 96.4 µM; in the assay with SK-MEL-2 melanoma it was greater than 100 µM; with RXF 393 renal it was greater than 64.7 µM; with NCI-H460 lung, greater than 100 µM; in the assay with TK-10 renal it was greater than 100 µM. Further, the TGI in the assay with 786-0 renal is greater than 54 µM; in the assay with MDA-MB-435 it was greater than 100 µM; in the assay with A498 renal, greater than 100 µM; in the assay with COLO 205 colon it was 27.1 µM.

On to `C[C@]12CC[C@@H]3c4ccc(O)cc4CC[C@H]3[C@@H]1C/C(=C\c1ccncc1)[C@@H]2O`, for which the TGI in the assay on HCC-2998 colon is 53 µM; in the assay with SK-OV-3 ovarian, greater than 100 µM; in the assay on SK-MEL-2 melanoma, 37.4 µM; in the assay on RXF 393 renal it was 7.73 µM; with NCI-H460 lung it was 68.2 µM; in the assay with TK-10 renal it was greater than 100 µM. Moreover, the TGI in the assay on 786-0 renal was 80.9 µM; in the assay with MDA-MB-435, greater than 100 µM; in the assay with A498 renal, 17.7 µM; in the assay with COLO 205 colon it was 19.8 µM.

On to `O=C(O)c1cc(-c2ccc3c(O)c(O)ccc3c2)ccc1O`, for which the TGI in the assay on HCC-2998 colon is greater than 75 µM; in the assay with SK-OV-3 ovarian, greater than 75 µM; with SK-MEL-2 melanoma it was greater than 75 µM; in the assay with RXF 393 renal, 47.8 µM; in the assay on NCI-H460 lung it was greater than 7.5 µM; in the assay with TK-10 renal, greater than 75 µM. Also, the TGI in the assay with 786-0 renal, with MDA-MB-435, with A498 renal and with COLO 205 colon was greater than 75 µM throughout.

In the case of `Cc1cc2c([N+](=O)[O-])cc3c(c2o1)C(=O)C=CC3=O`, the TGI is greater than 57.8 µM in the assay on HCC-2998 colon; greater than 80.1 µM in the assay with SK-OV-3 ovarian; 35.3 µM in the assay with SK-MEL-2 melanoma; 3.54 µM in the assay on RXF 393 renal; 36.7 µM in the assay with NCI-H460 lung; 5.72 µM in the assay on TK-10 renal. Also, the TGI in the assay with 786-0 renal worked out at 3.59 µM; with MDA-MB-435, 7.81 µM; with A498 renal, 29.5 µM; in the assay with COLO 205 colon, 4.88 µM.

As to `O=C(O)C(SC1=NNC2(C(=O)N1)c1ccccc1-c1ccccc12)SC1=NNC2(C(=O)N1)c1ccccc1-c1ccccc12`, the TGI in the assay with HCC-2998 colon, in the assay with SK-OV-3 ovarian, with SK-MEL-2 melanoma, in the assay on RXF 393 renal, in the assay with NCI-H460 lung and in the assay with TK-10 renal was greater than 10 µM throughout. Besides, the TGI in the assay on 786-0 renal, with MDA-MB-435, in the assay on A498 renal and in the assay on COLO 205 colon was greater than 10 µM throughout.

For `CSc1c(C#N)c(N)n(-c2ccc(C)cc2)c(=O)c1C#N`, the TGI in the assay on HCC-2998 colon, in the assay on SK-OV-3 ovarian, in the assay on SK-MEL-2 melanoma, in the assay on RXF 393 renal, in the assay with NCI-H460 lung and in the assay with TK-10 renal was greater than 100 µM in each case. For the same compound, the TGI in the assay with 786-0 renal, in the assay with MDA-MB-435, in the assay with A498 renal and in the assay on COLO 205 colon was greater than 100 µM throughout.

Regarding `Cc1cc(-c2nc3ccccc3s2)ccc1NC(=O)[C@@H](N)CCCCN`, the TGI amounted to 24.5 µM with HCC-2998 colon; 27.2 µM in the assay on SK-OV-3 ovarian; 30 µM in the assay with SK-MEL-2 melanoma; 16.5 µM in the assay on RXF 393 renal; 20.8 µM in the assay on NCI-H460 lung; 23.2 µM with TK-10 renal. Moreover, the TGI amounted to 13.2 µM in the assay on 786-0 renal, 10 µM with MDA-MB-435, 19.2 µM in the assay with A498 renal and 24.8 µM in the assay with COLO 205 colon.

Regarding `Nc1nc(Cl)cc(NCC2(CO)CCC(CCc3ccccc3)C2)n1` (stereo not given), the TGI in the assay on HCC-2998 colon was found to be 33.8 µM; with SK-OV-3 ovarian, 35.1 µM; with SK-MEL-2 melanoma, 34.5 µM; in the assay with RXF 393 renal it was 29.9 µM; in the assay with NCI-H460 lung it was 27.3 µM; in the assay on TK-10 renal, 48.9 µM. The TGI came to 31.9 µM with 786-0 renal, 28.3 µM in the assay with MDA-MB-435, 26.8 µM with A498 renal and 27.3 µM in the assay on COLO 205 colon.

On to `CC(O)CCCOC(c1ccccc1)(c1ccccc1)c1ccccc1` (stereo not given), for which the TGI amounted to 29.1 µM in the assay on HCC-2998 colon; 30.8 µM with SK-OV-3 ovarian; 29.5 µM in the assay on SK-MEL-2 melanoma; 29.2 µM with RXF 393 renal; 30.6 µM with NCI-H460 lung; 30.6 µM with TK-10 renal. Also, the TGI with 786-0 renal was 30.3 µM; with MDA-MB-435, 30.4 µM; in the assay on A498 renal it was 34.7 µM; in the assay on COLO 205 colon, 39.3 µM.

As to `CNc1ncnc2c1cnn2COCC(O)CO` (stereo not given), the TGI in the assay with HCC-2998 colon, in the assay on SK-OV-3 ovarian, in the assay on SK-MEL-2 melanoma, in the assay with RXF 393 renal, with NCI-H460 lung and with TK-10 renal was greater than 100 µM in each case. Also, the TGI in the assay with 786-0 renal, in the assay with MDA-MB-435, with A498 renal and in the assay with COLO 205 colon was greater than 100 µM throughout.

For the compound `COC(C)(C)[C@@H](O)[C@H]1C[C@H](C)[C@@]2(CC[C@]3(C)[C@@H]2CC[C@@H]2[C@@]4(C)CC[C@@H](OC(C)=O)C(C)(C)[C@@H]4C[C@@H](OC4OC(COC(C)=O)C(O)C(O)C4O)[C@]23C)O1` (stereo not given in full), the TGI in the assay on HCC-2998 colon was found to be 2.92 µM; in the assay with SK-OV-3 ovarian, 15.1 µM; with SK-MEL-2 melanoma it was 19.7 µM; with RXF 393 renal, 11.8 µM; with NCI-H460 lung, 15.6 µM; in the assay with TK-10 renal it was 24.6 µM. Further, the TGI turned out to be 18.7 µM in the assay with 786-0 renal, 12.3 µM in the assay with MDA-MB-435, 14.4 µM in the assay on A498 renal and 6.18 µM in the assay with COLO 205 colon.

`O=C(Oc1cc(=O)c(OC(=O)c2ccccc2)co1)c1ccccc1`: the TGI in the assay on HCC-2998 colon, in the assay on SK-OV-3 ovarian, in the assay with SK-MEL-2 melanoma, in the assay on RXF 393 renal, in the assay on NCI-H460 lung and with TK-10 renal was greater than 100 µM each time. Besides, the TGI with 786-0 renal, in the assay on MDA-MB-435, in the assay with A498 renal and in the assay on COLO 205 colon was greater than 100 µM each time.

On to `COC(=O)c1cc2c(cc1CC1Cc3cc4c(cc3C1)CCC4)CCC2`, for which the TGI with HCC-2998 colon was 70 µM; in the assay with SK-OV-3 ovarian it was greater than 100 µM; with SK-MEL-2 melanoma, 54 µM; in the assay with RXF 393 renal it was greater than 100 µM; in the assay on NCI-H460 lung, greater than 100 µM; in the assay with TK-10 renal, greater than 100 µM. Also, the TGI in the assay on 786-0 renal, with MDA-MB-435, with A498 renal and in the assay with COLO 205 colon was greater than 100 µM throughout.

Regarding `COC(=O)CCc1cc(OC)c2c(c1)[C@H](C(=O)OC)[C@@H](c1ccc(O)c(OC)c1)O2`, the TGI in the assay with HCC-2998 colon was 50.5 µM; in the assay with SK-OV-3 ovarian it was greater than 100 µM; with SK-MEL-2 melanoma, 84.6 µM; in the assay with RXF 393 renal, greater than 100 µM; in the assay on NCI-H460 lung, greater than 100 µM; in the assay with TK-10 renal, greater than 100 µM. The TGI was greater than 100 µM in the assay on 786-0 renal, 39.5 µM in the assay on MDA-MB-435, 74.5 µM with A498 renal and greater than 100 µM with COLO 205 colon.

`Clc1ccc(CSCCc2ccncc2)cc1Cl`: the TGI with HCC-2998 colon was 34.2 µM; in the assay with SK-OV-3 ovarian, 59.4 µM; in the assay with SK-MEL-2 melanoma, 30.8 µM; in the assay on RXF 393 renal, 61.8 µM; in the assay on NCI-H460 lung, greater than 100 µM; in the assay with TK-10 renal, greater than 100 µM. Moreover, the TGI with 786-0 renal stood at 33.1 µM; with MDA-MB-435, 49.5 µM; in the assay on A498 renal, 26 µM; in the assay on COLO 205 colon, 27.2 µM.

On to `ClC(Cl)=C1C(=C(Cl)Cl)C(Cl)(Cl)C1(Cl)Cl`, for which the TGI is 13.7 µM in the assay on HCC-2998 colon; 28.8 µM with SK-OV-3 ovarian; 3.32 µM with SK-MEL-2 melanoma; 3.26 µM with RXF 393 renal; 16.6 µM with NCI-H460 lung; 11 µM with TK-10 renal. Also, the TGI is 2.81 µM in the assay with 786-0 renal, 14 µM in the assay on MDA-MB-435, 26 µM with A498 renal and 10.8 µM in the assay on COLO 205 colon.
